Test results published in patent publication US8372991B2, “Trisubstituted thiophenes that modulate intracellular calcium” (Calcimedica, Inc., priority 2008, dated 2013).

Test system: JR251 or RBL cells
Assay: Store-operated calcium entry IC50 in either JR251 or RBL cells
Assay type: cell-based
Protocol: The day prior to performing the assay Orai1/STIM1 stable cells were plated in 50 μL of complete medium at 90-95% confluence in a 384 well plate. Cells were grown at 37° C./6% CO2 overnight. On the day of the assay, 1.5 μM fluo-4-AM (Invitrogen) in complete medium was added to the cells, which were then incubated for 1 hour at RT. Cells were washed once in Ca^2+-free HBSS (Hank's buffered saline solution) and 35 μl of Ca^2+-free HBSS was added to each well. Test compounds were added to wells in a 10 μL Ca^2+-free HBSS solution, prepared at 4.5× the desired final concentration, and incubated for 30 minutes at RT. The initial baseline fluorescence signal was then measured with a FLIPR^384 (Molecular Devices) plate reader. Calcium entry was initiated by adding 5 μl of 10× CaCl2 (10 mM) in HBSS, and changes in cellular fluorescence were measured with the FLIPR^384 plate reader. In each well, the magnitude of the fluorescence signal as a result of calcium entry into the cell was determined by calculating the difference between the peak fluorescence signal measured after calcium addition and the initial baseline fluorescence signal (designated Peak-Basal). IC50 values were typically calculated as the concentration that inhibited 50% of the Peak-Basal signal (Table A).
The day prior to performing the assay, RBL-2H3 cells are plated in 50 μL of complete medium in a 384 well plate. Cells are grown at 37° C./6% CO2 overnight and grow to 50-60% confluence by the next day. On the assay day, 1.5 μM Fluo-4-AM dye (Invitrogen) in complete medium is added and incubated for 1 hour at RT. Cells are washed twice in Ca^2+-free HBSS buffer and 35 μL Ca^2+-free HBSS buffer is added to each well. 10 μL of a test compound prepared in a Ca^2+-free HBSS solution at 4.5× of the desired concentration is added to a well and incubated for 5 minutes at RT. 10 μL of thapsigargin prepared in a Ca^2+-free HBSS solution at 5.5× of the desired concentration (5.5 uM) is added to each well and incubated for an additional 25 minutes. The initial baseline fluorescence signal is measured with a FLIPR^384 (Molecular Devices) plate reader. 5 μL of 12× calcium in HBSS (12 mM) is added and changes in cellular fluorescence are measured with the FLIPR^384 plate reader. In each well, the change in the fluorescent signal as a function of time due to calcium entry into the cell is determined by calculating the difference between the fluorescent signal measured 7 seconds after calcium addition and the initial baseline fluorescence signal at time zero (t=0). This parameter is designated Upslope. The IC50 value is calculated as the concentration at which 50% of the Upslope is inhibited.

Row | SMILES | IC50
1 | O=C(Nc1scc(-c2c[nH]c3ccccc23)c1C(=O)O)c1cccc(F)c1 [2-(3-fluorobenzamido)-4-(1H-indol-3-yl)thiophene-3-carboxylic acid] | < 10 µM
2 | Cc1nc(N2CCCCC2)ncc1-c1csc(NC(=O)c2cccc(F)c2)c1C(=O)O [2-(3-fluorobenzamido)-4-(4-methyl-2-(piperidin-1-yl)pyrimidin-5-yl)thiophene-3-carboxylic acid] | < 10 µM
3 | Cc1csc(-c2csc(NC(=O)c3cccc(F)c3)c2C(=O)O)n1 [2-(3-fluorobenzamido)-4-(4-methylthiazol-2-yl)thiophene-3-carboxylic acid] | < 10 µM
4 | COc1ccc(-c2csc(NC(=O)c3cccc(F)c3)c2C(=O)O)cn1 [2-(3-fluorobenzamido)-4-(6-methoxypyridin-3-yl)thiophene-3-carboxylic acid] | < 10 µM
5 | O=C(Nc1scc(-c2cnccn2)c1C(=O)O)c1cccc(F)c1 [2-(3-fluorobenzamido)-4-(pyrazin-2-yl)thiophene-3-carboxylic acid] | < 10 µM
6 | O=C(Nc1scc(-c2ncco2)c1C(=O)O)c1ccc(F)cc1 [2-(4-fluorobenzamido)-4-(oxazol-2-yl)thiophene-3-carboxylic acid] | < 10 µM
7 | Cc1nc(N2CCCCC2)ncc1-c1csc(NC(=O)c2snnc2C)c1C(=O)O [2-(4-methyl-1,2,3-thiadiazole-5-carboxamido)-4-(4-methyl-2-(piperidin-1-yl)pyrimidin-5-yl)thiophene-3-carboxylic acid] | < 10 µM
8 | Cc1nnsc1C(=O)Nc1scc(-c2cnccn2)c1C(=O)O [2-(4-methyl-1,2,3-thiadiazole-5-carboxamido)-4-(pyrazin-2-yl)thiophene-3-carboxylic acid] | < 10 µM
9 | Cc1cc(-c2csc(NC(=O)c3cnn(C)c3Cl)c2C(=O)O)n(C)n1 [2-(5-chloro-1-methyl-1H-pyrazole-4-carboxamido)-4-(1,3-dimethyl-1H-pyrazol-5-yl)thiophene-3-carboxylic acid] | < 10 µM
10 | Cn1ncc(C(=O)Nc2scc(-c3cnn(-c4ccc(Cl)cc4)c3)c2C(=O)O)c1Cl [2-(5-chloro-1-methyl-1H-pyrazole-4-carboxamido)-4-(1-(4-chlorophenyl)-1H-pyrazol-4-yl)thiophene-3-carboxylic acid] | < 10 µM
11 | Cc1nc(N2CCCCC2)ncc1-c1csc(NC(=O)c2cnn(C)c2Cl)c1C(=O)O [2-(5-chloro-1-methyl-1H-pyrazole-4-carboxamido)-4-(4-methyl-2-(piperidin-1-yl)pyrimidin-5-yl)thiophene-3-carboxylic acid] | < 10 µM
12 | Cc1ccc(-c2csc(NC(=O)c3nc4ccccc4o3)c2C(=O)O)c2ccccc12 [2-(benzo[d]oxazole-2-carboxamido)-4-(4-methylnaphthalen-1-yl)thiophene-3-carboxylic acid] | < 10 µM
13 | O=C(Nc1scc(-c2ccc3ccccc3c2)c1C(=O)O)c1nc2ccccc2o1 [2-(benzo[d]oxazole-2-carboxamido)-4-(naphthalen-2-yl)thiophene-3-carboxylic acid] | < 10 µM
14 | O=C(Nc1scc(-c2nc3ccccc3n2C(F)F)c1C(=O)O)c1cc2ccccc2o1 [2-(benzofuran-2-carboxamido)-4-(1-(difluoromethyl)-1H-benzo[d]imidazol-2-yl)thiophene-3-carboxylic acid] | < 10 µM
15 | Cn1ccc2cc(-c3csc(NC(=O)c4cc5ccccc5o4)c3C(=O)O)ccc21 [2-(benzofuran-2-carboxamido)-4-(1-methyl-1H-indol-5-yl)thiophene-3-carboxylic acid] | < 10 µM
16 | Cn1nc(C(F)(F)F)cc1-c1csc(NC(=O)c2cc3ccccc3o2)c1C(=O)O [2-(benzofuran-2-carboxamido)-4-(1-methyl-3-(trifluoromethyl)-1H-pyrazol-5-yl)thiophene-3-carboxylic acid] | < 10 µM
17 | O=C(Nc1scc(-c2c[nH]c3ccccc23)c1C(=O)O)c1cc2ccccc2o1 [2-(benzofuran-2-carboxamido)-4-(1H-indol-3-yl)thiophene-3-carboxylic acid] | < 10 µM
18 | O=C(Nc1scc(-c2cnc3[nH]ccc3c2)c1C(=O)O)c1cc2ccccc2o1 [2-(benzofuran-2-carboxamido)-4-(1H-pyrrolo[2,3-b]pyridin-5-yl)thiophene-3-carboxylic acid] | < 10 µM

Row | SMILES | IC50
19 | Cc1nc(C)c(-c2csc(NC(=O)c3cc4ccccc4o3)c2C(=O)O)s1 [2-(benzofuran-2-carboxamido)-4-(2,4-dimethylthiazol-5-yl)thiophene-3-carboxylic acid] | < 10 µM
20 | O=C(Nc1scc(-c2ccc(F)nc2F)c1C(=O)O)c1cc2ccccc2o1 [2-(benzofuran-2-carboxamido)-4-(2,6-difluoropyridin-3-yl)thiophene-3-carboxylic acid] | < 10 µM
21 | O=C(Nc1scc(-c2cnc(C(F)(F)F)nc2)c1C(=O)O)c1cc2ccccc2o1 [2-(benzofuran-2-carboxamido)-4-(2-(trifluoromethyl)pyrimidin-5-yl)thiophene-3-carboxylic acid] | < 10 µM
22 | O=C(Nc1scc(-c2ccnc(F)c2)c1C(=O)O)c1cc2ccccc2o1 [2-(benzofuran-2-carboxamido)-4-(2-fluoropyridin-4-yl)thiophene-3-carboxylic acid] | < 10 µM
23 | Cc1ccc(-c2csc(NC(=O)c3cc4ccccc4o3)c2C(=O)O)c2ccccc12 [2-(benzofuran-2-carboxamido)-4-(4-methylnaphthalen-1-yl)thiophene-3-carboxylic acid] | < 10 µM
24 | Cc1csc(-c2csc(NC(=O)c3cc4ccccc4o3)c2C(=O)O)n1 [2-(benzofuran-2-carboxamido)-4-(4-methylthiazol-2-yl)thiophene-3-carboxylic acid] | < 10 µM
25 | CCOc1ccc(-c2csc(NC(=O)c3cc4ccccc4o3)c2C(=O)O)cn1 [2-(benzofuran-2-carboxamido)-4-(6-ethoxypyridin-3-yl)thiophene-3-carboxylic acid] | < 10 µM
26 | O=C(Nc1scc(-c2ccc(F)nc2)c1C(=O)O)c1cc2ccccc2o1 [2-(benzofuran-2-carboxamido)-4-(6-fluoropyridin-3-yl)thiophene-3-carboxylic acid] | < 10 µM
27 | COc1ccc(-c2csc(NC(=O)c3cc4ccccc4o3)c2C(=O)O)cn1 [2-(benzofuran-2-carboxamido)-4-(6-methoxypyridin-3-yl)thiophene-3-carboxylic acid] | < 10 µM
28 | Cc1ccc(-c2csc(NC(=O)c3cc4ccccc4o3)c2C(=O)O)cn1 [2-(benzofuran-2-carboxamido)-4-(6-methylpyridin-3-yl)thiophene-3-carboxylic acid] | < 10 µM
29 | COc1cccc2cc(-c3csc(NC(=O)c4cc5ccccc5o4)c3C(=O)O)[nH]c12 [2-(benzofuran-2-carboxamido)-4-(7-methoxy-1H-indol-2-yl)thiophene-3-carboxylic acid] | < 10 µM
30 | Cc1ccc(-c2csc(NC(=O)c3cc4ccccc4o3)c2C(=O)O)c2cccnc12 [2-(benzofuran-2-carboxamido)-4-(8-methylquinolin-5-yl)thiophene-3-carboxylic acid] | < 10 µM
31 | O=C(Nc1scc(-c2ccc3ccccc3c2)c1C(=O)O)c1cc2ccccc2o1 [2-(benzofuran-2-carboxamido)-4-(naphthalen-2-yl)thiophene-3-carboxylic acid] | < 10 µM
32 | O=C(Nc1scc(-c2ccc3nccnc3c2)c1C(=O)O)c1cc2ccccc2o1 [2-(benzofuran-2-carboxamido)-4-(quinoxalin-6-yl)thiophene-3-carboxylic acid] | < 10 µM
33 | Cc1ccc(-c2csc(NC(=O)c3ccccc3)c2C(=O)O)o1 [2-benzamido-4-(5-methylfuran-2-yl)thiophene-3-carboxylic acid] | < 10 µM
34 | Cc1cc(-c2csc(NC(=O)c3cccc(F)c3)c2C(=O)O)n(C)n1 [4-(1,3-dimethyl-1H-pyrazol-5-yl)-2-(3-fluorobenzamido)thiophene-3-carboxylic acid] | < 10 µM
35 | Cc1cc(-c2csc(NC(=O)c3snnc3C)c2C(=O)O)n(C)n1 [4-(1,3-dimethyl-1H-pyrazol-5-yl)-2-(4-methyl-1,2,3-thiadiazole-5-carboxamido)thiophene-3-carboxylic acid] | < 10 µM
36 | Cn1cnc(C(=O)Nc2scc(-c3cnn(-c4ccc(Cl)cc4)c3)c2C(=O)O)c1 [4-(1-(4-chlorophenyl)-1H-pyrazol-4-yl)-2-(1-methyl-1H-imidazole-4-carboxamido)thiophene-3-carboxylic acid] | < 10 µM
